Measurements from ChEMBL document CHEMBL1154622, “Structure-guided design of potent and selective pyrimidylpyrrole inhibitors of extracellular signal-regulated kinase (ERK) using conformational control” (J Med Chem, 2009).

Experiments:
[1] = Inhibition of GSK3
Aurora kinase A = target: T1, Aurora kinase A (Homo sapiens, UniProt O14965); test: Inhibition of AURA
T1 sequence (O14965 whole entry): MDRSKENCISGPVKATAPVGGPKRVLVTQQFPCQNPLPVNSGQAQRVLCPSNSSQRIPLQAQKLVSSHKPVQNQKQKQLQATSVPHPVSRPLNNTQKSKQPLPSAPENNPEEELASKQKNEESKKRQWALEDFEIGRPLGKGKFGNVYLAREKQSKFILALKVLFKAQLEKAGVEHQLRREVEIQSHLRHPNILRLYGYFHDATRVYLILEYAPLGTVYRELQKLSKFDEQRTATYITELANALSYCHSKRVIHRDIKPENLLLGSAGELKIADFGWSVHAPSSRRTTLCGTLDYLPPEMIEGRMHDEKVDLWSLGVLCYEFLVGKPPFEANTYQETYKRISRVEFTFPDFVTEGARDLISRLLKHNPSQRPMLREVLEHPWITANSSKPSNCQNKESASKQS

HT-29 = test: Antiproliferative activity against human HT-29 cells; format: functional, cell-based
[2] = target: Mitogen-activated protein kinase 1 (Homo sapiens, UniProt P28482)
Mitogen-activated protein kinase 1, sequence (P28482 whole entry): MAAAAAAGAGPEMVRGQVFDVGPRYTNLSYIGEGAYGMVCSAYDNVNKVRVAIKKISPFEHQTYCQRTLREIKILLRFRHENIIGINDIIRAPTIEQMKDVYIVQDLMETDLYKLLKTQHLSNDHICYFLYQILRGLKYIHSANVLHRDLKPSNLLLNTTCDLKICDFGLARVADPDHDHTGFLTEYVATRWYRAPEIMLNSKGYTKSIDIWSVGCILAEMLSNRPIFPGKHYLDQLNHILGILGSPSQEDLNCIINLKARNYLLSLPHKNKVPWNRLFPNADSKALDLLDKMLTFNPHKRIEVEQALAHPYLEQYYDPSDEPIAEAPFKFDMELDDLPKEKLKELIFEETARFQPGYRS
Description: Inhibition of ERK2 after 10 mins by spectrophotometric coupled-enzyme assay

[3] = target: Cyclin-dependent kinase 2 (Homo sapiens, UniProt P24941)

| Structure (SMILES) | Ki [1] [nM] | Ki (Aurora kinase A) [nM] | IC50 (HT-29) [nM] | Ki [2] [nM] | Ki [3] [nM] |
| --- | --- | --- | --- | --- | --- |
| Cc1cnc(Nc2ccc(Cl)cc2F)nc1-c1c[nH]c(C(=O)N[C@H](CO)c2cccc(Cl)c2)c1 | 450 | 540 | 97 | 5 | 316 |
| CCc1ccccc1Nc1ncc(C)c(-c2c[nH]c(C(=O)N[C@H](CO)c3ccccc3)c2)n1 | 760 | 1430 | 66 | 3 | 210 |
| Cc1ccccc1Nc1ncc(C)c(-c2c[nH]c(C(=O)N[C@H](CO)c3ccccc3)c2)n1 |  | 860 |  |  |  |
| Cc1cnc(Nc2cccc3c2OCCO3)nc1-c1c[nH]c(C(=O)N[C@H](CO)c2cccc(Cl)c2)c1 | 45 | 11 | 58 | 15 | 138 |
| COc1cccc(Nc2ncc(C)c(-c3c[nH]c(C(=O)N[C@H](CO)c4cccc(Cl)c4)c3)n2)c1OC | > 2500 | > 200 | 230 | 3 | > 2500 |
| Cc1cnc(Nc2ccccc2)nc1-c1c[nH]c(C(=O)N[C@H](CO)c2cccc(Cl)c2)c1 | 140 | 19 | 100 | < 2 | 290 |
| Cc1cnc(Nc2ccccc2)nc1-c1c[nH]c(C(=O)N[C@@H](CO)c2ccccc2)c1 |  | 270 |  | 670 |  |
| Cc1cnc(Nc2ccccc2)nc1-c1c[nH]c(C(=O)N[C@H](CO)c2ccccc2)c1 |  | 15 | 29 | < 2 |  |
| Cc1cnc(Nc2cccc3c2CCC3)nc1-c1c[nH]c(C(=O)N[C@H](CO)c2cccc(Cl)c2)c1 | 350 | 550 | 250 | < 2 | 642 |
| Cc1cccc([C@@H](CO)NC(=O)c2cc(-c3nc(Nc4ccccc4)ncc3C)c[nH]2)c1 | 26 | 45 | 40 | < 2 | 69 |
| Cc1cnc(Nc2cccc3c2OC(F)(F)O3)nc1-c1c[nH]c(C(=O)N[C@H](CO)c2cccc(Cl)c2)c1 | 310 | > 800 | 280 | < 2 | 170 |
| Cc1cnc(Nc2cccc3c2CCCC3)nc1-c1c[nH]c(C(=O)N[C@H](CO)c2cccc(Cl)c2)c1 | 667 | 280 | 420 | 13 | 250 |
| Cc1cnc(Nc2ccccc2F)nc1-c1c[nH]c(C(=O)N[C@H](CO)c2ccccc2)c1 | 45 | 160 | 26 | < 2 | 57 |
| Cc1cnc(Nc2cccc(F)c2C)nc1-c1c[nH]c(C(=O)N[C@H](CO)c2cccc(Cl)c2)c1 | 1260 | 410 | 56 | 34 | 150 |
| Cc1ccccc1Nc1ncc(C)c(-c2c[nH]c(C(=O)N[C@H](CO)c3cccc(Cl)c3)c2)n1 | < 2 | 400 |  |  |  |
| Cc1cnc(Nc2ccccc2C(F)(F)F)nc1-c1c[nH]c(C(=O)N[C@H](CO)c2ccccc2)c1 |  | > 800 | 6300 |  | > 4000 |
| Cc1cnc(Nc2cccc3c2OCO3)nc1-c1c[nH]c(C(=O)N[C@H](CO)c2cccc(Cl)c2)c1 | 33 | 15 | 58 | < 2 | 209 |
| Cc1cc(Cl)ccc1Nc1ncc(C)c(-c2c[nH]c(C(=O)N[C@H](CO)c3cccc(Cl)c3)c2)n1 | 1100 | 410 | 98 | 5 | 76 |
| CCc1ccccc1Nc1ncc(C)c(-c2c[nH]c(C(=O)N[C@H](CO)c3cccc(Cl)c3)c2)n1 | 150 | 720 | 39 | < 2 | 450 |
| Cc1cnc(Nc2ccccc2O)nc1-c1c[nH]c(C(=O)N[C@H](CO)c2ccccc2)c1 | < 2 | 99 | 3000 | 4 | < 100 |
| Cc1cnc(Nc2ccccc2Cl)nc1-c1c[nH]c(C(=O)N[C@H](CO)c2ccccc2)c1 | 190 | 1550 |  | < 2 | 240 |
| Cc1cnc(Nc2cccc(C)c2C)nc1-c1c[nH]c(C(=O)N[C@H](CO)c2cccc(Cl)c2)c1 | 110 | 440 |  | < 2 | 41 |
